Measurements reported in patent US9133116B2, “Bicyclic compounds” (PANACEA BIOTEC LTD., priority 2010, dated 2015).
Where two headings read alike, the source gives them in different places. Marks after values point to notes of the source that are not given here.

Legend:
[1] = test system: male SWISS albino mice; experiment: Forced Swim Test in mice; type: in vivo; conditions: oral, 15 min before test, immobility in last 4 min of 6 min
Protocol: This test was conducted according to the method of Li, X., et al., Metabotropic Glutamate 5 Receptor Antagonism Is Associated with Antidepressant-Like Effects in Mice. J Pharmacol Exp Ther., 319(1):254-259 (2006), with slight modifications.
A test compound was suspended in 0.25% CMC, unless otherwise specified, and this solution was orally administered to male SWISS albino mice (7 to 9 week old). 15 min later, the mice were placed in a water tank having a water depth of 15 cm and a water temperature of 25±1° C. and immediately thereafter allowed to swim for 6 min. Then, a time during which the mouse was immobile (immobility time) was measured for the last 4 min.
Cleversys Software (Forced Swim Scan) was used for carrying out Forced Swim Test in mice.

[2] = biological target: T1, SERT (Homo sapiens, UniProt P31645); experiment: Serotonin Binding Assay ([3H]-Citalopram Binding Assay); conditions: NE = Not Effective; for inhibition at 0.1 µM / inhibition at 1 µM: 1 h
T1 construct: purchased Perkin Elmer
T1 sequence (P31645 whole entry): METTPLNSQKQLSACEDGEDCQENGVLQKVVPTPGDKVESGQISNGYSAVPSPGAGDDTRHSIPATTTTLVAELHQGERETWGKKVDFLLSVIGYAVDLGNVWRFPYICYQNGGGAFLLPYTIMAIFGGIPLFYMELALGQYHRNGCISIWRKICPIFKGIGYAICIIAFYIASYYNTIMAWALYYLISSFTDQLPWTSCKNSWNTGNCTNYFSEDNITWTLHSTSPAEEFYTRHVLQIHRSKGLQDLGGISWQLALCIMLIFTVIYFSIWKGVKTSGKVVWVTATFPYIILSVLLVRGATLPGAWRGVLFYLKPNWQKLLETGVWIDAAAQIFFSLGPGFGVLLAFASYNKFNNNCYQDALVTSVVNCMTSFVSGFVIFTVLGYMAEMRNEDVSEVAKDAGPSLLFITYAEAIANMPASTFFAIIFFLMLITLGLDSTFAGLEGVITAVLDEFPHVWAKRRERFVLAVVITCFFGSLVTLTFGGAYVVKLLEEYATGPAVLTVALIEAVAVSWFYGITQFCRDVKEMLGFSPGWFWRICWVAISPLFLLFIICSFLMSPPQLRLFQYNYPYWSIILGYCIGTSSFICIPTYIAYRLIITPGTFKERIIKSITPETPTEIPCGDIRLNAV
Protocol: 2. Serotonin Binding Assay
The Membrane protein of 0.4 mL size vial, with protein concentration of 9.0 mg/ml was bought from Perkin Elmer, stored in −80° C. until required.
[^3H]-Citalopram Binding Assay:
(§1) Each well of 96 well microtitre plate was set up to contain the following:
The microtitre plates were incubated at 25° C. for 60 min; reaction was stopped by filtration in GF/B filter plate (presoaked in 0.5% Polyethylenimine) and then added 50 μL of microscint 40. Radioactivity was measured on Liquid Scintillation counter (Perkin Elmer).

[3] = biological target: T2, NET (Homo sapiens, UniProt P23975); experiment: Norepinephrine Binding Assay ([3H]-Nisoxetine Binding Assay); conditions: NE = Not Effective; for inhibition at 0.1 µM / inhibition at 1 µM: 1 h
T2 construct: purchased Perkin Elmer
T2 sequence (P23975 whole entry): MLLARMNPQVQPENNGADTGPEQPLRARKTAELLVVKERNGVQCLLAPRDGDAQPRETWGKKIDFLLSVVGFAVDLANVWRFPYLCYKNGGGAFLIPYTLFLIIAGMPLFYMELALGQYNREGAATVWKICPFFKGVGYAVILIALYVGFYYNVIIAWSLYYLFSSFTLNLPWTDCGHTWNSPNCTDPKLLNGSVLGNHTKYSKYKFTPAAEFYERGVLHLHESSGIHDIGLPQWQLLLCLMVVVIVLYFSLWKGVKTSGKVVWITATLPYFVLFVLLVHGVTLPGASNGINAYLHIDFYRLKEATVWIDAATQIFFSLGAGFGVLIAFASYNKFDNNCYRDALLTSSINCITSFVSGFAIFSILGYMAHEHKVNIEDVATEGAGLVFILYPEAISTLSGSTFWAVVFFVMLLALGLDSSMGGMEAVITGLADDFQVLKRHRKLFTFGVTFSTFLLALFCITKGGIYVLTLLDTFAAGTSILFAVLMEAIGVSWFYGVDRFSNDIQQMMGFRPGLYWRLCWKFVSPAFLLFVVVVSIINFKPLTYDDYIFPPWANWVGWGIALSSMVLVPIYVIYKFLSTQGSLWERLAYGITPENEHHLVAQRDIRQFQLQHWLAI
Protocol: 1. Norepinephrine Binding Assay
The Membrane protein of 0.4 mL size vial, with protein concentration of 3.0 mg/ml was bought from Perkin Elmer, stored in −80° C. until required.
[^3H]-Nisoxetine Binding Assay:
as §1
The microtitre plates were incubated at 4° C. for 60 mins; reaction was stopped by filtration in GF/B filter plate (presoaked in 0.5% Polyethylenimine) and then added 50 μl of microscint 40. Radioactivity was measured on Liquid Scintillation counter (Perkin Elmer).

[4] = biological target: T3, DAT (Homo sapiens, UniProt Q01959); experiment: Dopamine Binding Assay ([3H]-WIN35,428 Binding Assay); conditions: NE = Not Effective; for inhibition at 1 µM / inhibition at 0.1 µM: 2 h; for inhibition at 0.1 µM: read-out: DAT % WIN 35428 displacement 100 nM, 100 nM test compound
T3 construct: purchased Perkin Elmer
T3 sequence (Q01959 whole entry): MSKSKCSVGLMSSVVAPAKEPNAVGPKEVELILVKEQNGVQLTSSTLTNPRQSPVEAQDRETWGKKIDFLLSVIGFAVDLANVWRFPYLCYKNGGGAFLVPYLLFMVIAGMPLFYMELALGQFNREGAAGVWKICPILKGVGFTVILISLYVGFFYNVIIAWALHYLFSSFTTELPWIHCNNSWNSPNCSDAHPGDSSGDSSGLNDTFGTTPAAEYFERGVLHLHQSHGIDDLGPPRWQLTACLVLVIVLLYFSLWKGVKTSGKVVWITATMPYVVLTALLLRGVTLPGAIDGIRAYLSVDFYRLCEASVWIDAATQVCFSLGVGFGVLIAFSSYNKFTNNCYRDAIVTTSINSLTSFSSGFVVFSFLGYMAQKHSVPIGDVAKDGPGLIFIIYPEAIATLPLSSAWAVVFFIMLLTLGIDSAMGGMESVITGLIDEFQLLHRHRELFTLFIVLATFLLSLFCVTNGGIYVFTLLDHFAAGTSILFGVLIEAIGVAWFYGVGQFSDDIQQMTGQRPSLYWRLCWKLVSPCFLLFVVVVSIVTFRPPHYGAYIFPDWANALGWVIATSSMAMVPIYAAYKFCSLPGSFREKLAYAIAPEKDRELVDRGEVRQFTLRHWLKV
Protocol: 3. Dopamine Binding Assay
The Membrane protein of 0.4 mL size vial, with protein concentration of 12 mg/mL was bought from Perkin Elmer, stored in −80° C. until required.
[^3H]-WIN35,428 Binding Assay:
as §1
The microtitre plates were incubated at 4° C. for 120 min; reaction was stopped by filtration in GF/B filter plate (presoaked in 0.5% Polyethylenimine) and then added 50 μL of microscint 40. Radioactivity was measured on Liquid Scintillation counter (Perkin Elmer).

[5] = read-out: SERT % Citalopram displacement 100 nM, 100 nM test compound
[6] = read-out: SERT % Citalopram displacement 1 μM, 1 μM test compound
[7] = read-out: NET % Nisoxetine displacement 100 nM, 100 nM test compound
[8] = read-out: NET % Nisoxetine displacement 1 μM, 1 μM test compound
[9] = read-out: DAT % WIN 35428 displacement 1 μM, 1 μM test compound
[10] = 1 μM test compound, read-out: NET % Nisoxetine displacement 1 μM
[11] = 100 nM test compound, read-out: SERT % Citalopram displacement 100 nM
[12] = 1 μM test compound, read-out: SERT % Citalopram displacement 1 μM
[13] = 1 μM test compound, read-out: DAT % WIN 35428 displacement 1 μM

CON=C(c1ccc(Cl)c(Cl)c1)C1C2CNCC21.Cl (stereo not drawn)
% decrease in immobility time (dose 32 mg/kg) ([1]; vehicle de-ionized water): 80.0 ± 3.8^z %

CON=CC1C2CNCC12c1ccc(Cl)c(Cl)c1.Cl (stereo not drawn)
% decrease in immobility time (dose 32 mg/kg) ([1]; vehicle de-ionized water): 87.5 ± 4.1^z %

CCON=CC1C2CNCC12c1ccc(Cl)c(Cl)c1.Cl (stereo not drawn)
% decrease in immobility time (dose 32 mg/kg) ([1]; suspended in 0.25% CMC): 83.1 ± 9.6%

CON=CC1C2CNCC12c1ccc(Cl)cc1.Cl (stereo not drawn)
% decrease in immobility time (dose 32 mg/kg) ([1]; vehicle de-ionized water): 50.2 ± 14.7^z %

CON=CC1C2CNCC12c1ccc(F)cc1.Cl (stereo not drawn)
% decrease in immobility time (dose 32 mg/kg) ([1]; vehicle de-ionized water): 55.1 ± 13.0^z %

CON=CC1C2CNCC12c1ccccc1.Cl (stereo not drawn)
% decrease in immobility time (dose 32 mg/kg) ([1]; suspended in 0.25% CMC): 60.4 ± 12.6%

CON=C(c1ccccc1)C1C2CNCC21 (stereo not drawn)
inhibition at 0.1 µM [2, 5]: 18.4% | inhibition at 1 µM [2, 6]: 27.5%

CON=C(c1ccc2ccccc2c1)C1C2CNCC21 (stereo not drawn)
inhibition at 0.1 µM [3, 7]: 21.8% | inhibition at 1 µM [3, 8]: 60.5% | inhibition at 0.1 µM [2, 5]: 77.2% | inhibition at 1 µM [2, 6]: 93.4%

ON=C(c1ccc(Cl)c(Cl)c1)C1C2CNCC21 (stereo not drawn)
inhibition at 1 µM [3, 8]: 25.1% | inhibition at 0.1 µM [2, 5]: 29.8% | inhibition at 1 µM [2, 6]: 74.8% | inhibition at 1 µM [4, 9]: 49.6%

CCON=C(c1ccc(Cl)c(Cl)c1)C1C2CNCC21 (stereo not drawn)
inhibition at 0.1 µM [3, 7]: 18.2% | inhibition at 1 µM [3, 8]: 61.5% | inhibition at 0.1 µM [2, 5]: 49.8% | inhibition at 1 µM [2, 6]: 87.5% | inhibition at 1 µM [4, 9]: 71%

C=CCON=C(c1ccc(Cl)c(Cl)c1)C1C2CNCC21 (stereo not drawn)
inhibition at 0.1 µM ([3]; 100 nM test compound, read-out: NET % Nisoxetine displacement 100 nM): 14.3% | inhibition at 1 µM [3, 10]: 71.3% | inhibition at 0.1 µM [2, 11]: 72.6% | inhibition at 1 µM [2, 12]: 94.4% | inhibition at 1 µM [4, 13]: 78%

Clc1ccc(C(=NOCC2CC2)C2C3CNCC32)cc1Cl (stereo not drawn)
inhibition at 1 µM [3, 10]: 33.9% | inhibition at 0.1 µM [2, 11]: 69.8% | inhibition at 1 µM [2, 12]: 95.5% | inhibition at 1 µM [4, 13]: 68.7%

Clc1ccc(C(=NOc2ccccc2)C2C3CNCC32)cc1Cl (stereo not drawn)
inhibition at 1 µM [3, 10]: 19.1% | inhibition at 1 µM [2, 12]: 61.4%

Clc1ccc(C(=NOCc2ccccc2)C2C3CNCC32)cc1Cl (stereo not drawn)
inhibition at 1 µM [3, 10]: 27.2% | inhibition at 0.1 µM [2, 11]: 30.4% | inhibition at 1 µM [2, 12]: 85.8% | inhibition at 1 µM [4, 13]: 36%

CON=CC1C2CNCC12c1ccc(Cl)c(Cl)c1 (stereo not drawn)
inhibition at 0.1 µM [3, 7]: 37.4% | inhibition at 1 µM [3, 8]: 82.3% | inhibition at 0.1 µM [2, 5]: 65% | inhibition at 1 µM [2, 6]: 91.8% | inhibition at 0.1 µM [4]: 30.6% | inhibition at 1 µM [4, 9]: 66.3%

CCON=CC1C2CNCC12c1ccc(Cl)c(Cl)c1 (stereo not drawn)
inhibition at 0.1 µM [2, 5]: 83.7% | inhibition at 1 µM [2, 6]: 94.4% | inhibition at 0.1 µM [4]: 16.7% | inhibition at 1 µM [4, 9]: 71.8%

Clc1ccc(C23CNCC2C3C=NOCc2ccccc2)cc1Cl (stereo not drawn)
inhibition at 0.1 µM [3, 7]: 34.6% | inhibition at 1 µM [3, 8]: 73.6% | inhibition at 0.1 µM [2, 5]: 23.3% | inhibition at 1 µM [2, 6]: 89% | inhibition at 0.1 µM [4]: 27% | inhibition at 1 µM [4, 9]: 39%

Fc1ccc(CON=CC2C3CNCC23c2ccc(Cl)c(Cl)c2)cc1 (stereo not drawn)
inhibition at 1 µM [3, 10]: 74.2% | inhibition at 0.1 µM [2, 11]: 12.5% | inhibition at 1 µM [2, 12]: 88.8% | inhibition at 1 µM [4, 13]: 40.9%

CON=CC1C2CNCC12c1ccc(Cl)cc1 (stereo not drawn)
inhibition at 1 µM [3, 8]: 54.5% | inhibition at 0.1 µM [2, 5]: 37.8% | inhibition at 1 µM [2, 6]: 85.6% | inhibition at 1 µM [4, 9]: 29.9%

CON=CC1C2CNCC12c1ccc(F)cc1 (stereo not drawn)
inhibition at 0.1 µM [2, 5]: 43.5% | inhibition at 1 µM [2, 6]: 85.1%

CON=CC1C2CNCC12c1ccccc1 (stereo not drawn)
inhibition at 0.1 µM [2, 5]: 39.2% | inhibition at 1 µM [2, 6]: 79.9%

CON=C(c1ccc(Cl)c(Cl)c1)C1C2CNCC21.Cl (stereo not drawn) [drawing 66]
inhibition at 0.1 µM [3, 7]: 15.6% | inhibition at 1 µM [3, 8]: 75.6% | inhibition at 0.1 µM [2, 5]: 43.1% | inhibition at 1 µM [2, 6]: 84.8% | DAT % WIN 35428 displacement 1 μM ([4]; 1 μM test compound): 32.76%

CON=C(c1ccc(Cl)c(Cl)c1)C1C2CNCC21 (stereo not drawn) [drawing 72]
NET % Nisoxetine displacement 100 nM ([3]; 100 nM test compound): 24.48% | NET % Nisoxetine displacement 1 μM ([3]; 1 μM test compound): 75.97% | SERT % Citalopram displacement 100 nM ([2]; 100 nM test compound): 50.25% | SERT % Citalopram displacement 1 μM ([2]; 1 μM test compound): 90.07% | DAT % WIN 35428 displacement 1 μM ([4]; 1 μM test compound): 64.58% | inhibition at 0.1 µM [4]: 28.1%
